Test results reported in patent US7544690B2, “MCH receptor antagonists” (Taisho Pharmaceutical Co., Ltd., priority 2001, dated 2009).
Where a name gives a salt, the structure may show the parent alone.

Target: T1, non-endogenous version of the MCH receptor (MCH-IC3-SST2) (Homo sapiens, UniProt Q99705, A240I/A242V/I247R/L249K/M235V/P241R/Q244S/R234K/R245S/R248K/R250S/R253K/S243G/S246K/T236K/T251E/V239G)
T1 construct: creating a MCH-IC3-SST2 mutation (see); expressed in transfected cells; cultured with 0.5 mg/ml G418, so I infer a stably transfected line
T1 sequence (Q99705 1-353 with the stated changes): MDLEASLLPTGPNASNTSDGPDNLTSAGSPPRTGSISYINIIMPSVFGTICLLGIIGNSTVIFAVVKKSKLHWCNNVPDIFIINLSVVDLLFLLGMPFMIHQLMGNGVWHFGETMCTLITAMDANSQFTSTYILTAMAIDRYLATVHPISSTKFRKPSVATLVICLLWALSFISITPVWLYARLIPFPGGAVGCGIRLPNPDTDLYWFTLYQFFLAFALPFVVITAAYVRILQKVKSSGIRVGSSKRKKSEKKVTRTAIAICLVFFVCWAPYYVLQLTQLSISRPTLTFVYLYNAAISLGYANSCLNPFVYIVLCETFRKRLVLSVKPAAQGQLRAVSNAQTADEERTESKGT
Test: FLIPR/FDSS6000 functional assay: intracellular Ca2+ changes evoked by MCH
Format: cell-based
Conditions: antagonist activity; 50 nM of MCH; transient changes in [Ca2+]i monitored by FLIPR or FDSS
Source text: Subsequently, a functional based assay was used to confirm the lead hits, referred to as FLIPR™ (the Fluorometric Imaging Plate Reader) and FDSS6000™ (Functional Drug Screening System). This assay utilized a non-endogenous version of the MCH receptor, which was created by swapping the third intracellular loop of the MCH receptor with that of the SST2 receptor (see Example 2(B)(2) of patent application Ser. No. 09/826,509).
The FLIPR and FDSS assays are able to detect intracellular Ca^2+ concentration in cells, which can be utilized to assess receptor activation and determine whether a candidate compound is an, for example, antagonist, inverse agonist or agonist to a Gq-coupled receptor. The concentration of free Ca^2+ in the cytosol of any cell is extremely low, whereas its concentration in the extracellular fluid and endoplasmic reticulum (ER) is very high. Thus, there is a large gradient tending to drive Ca^2+ into the cytosol across both the plasma membrane and ER. […]
To confirm the lead hits identified using the [^35S]GTPγS assay, Fluorometric Imaging Plate Reader system was used to allow for rapid, kinetic measurements of intracellular fluorescence in 96 well microplates (or 384 well microplates). Simultaneous measurements of fluorescence in all wells can be made by FLIPR or FDSS6000™, every second with high sensitivity and precision. […]

IC50	Structure (SMILES)
6 nM	CN(C)c1nc(N[C@H]2CC[C@@H](CNCc3ccc(Br)cc3OC(F)(F)F)CC2)nc2ccccc12 [Example 41, cis-N^2-{4-[(4-Bromo-2-trifluoromethoxy-benzylamino)-methyl]-cyclohexyl}-N^4,N^4-dimethyl-quinazoline-2,4-diamine dihydrochloride]
19 nM	CN(C)c1nc(N[C@H]2CC[C@@H](CNCc3ccccc3OC(F)(F)F)CC2)nc2ccccc12 [Example 42, cis-N^4,N^4-Dimethyl-N^2-{4-[(2-trifluoromethoxy-benzylamino)-methyl]-cyclohexyl}-quinazoline-2,4-diamine dihydrochloride]
